Active and inactive are the calls of the source. The calls are words filed in the database; no cut-off is given here.
Key:
D(4) dopamine receptor = biological target: T1, D(4) dopamine receptor (Homo sapiens, UniProt P21917); assay: Displacement of [3H]Spiperone from human dopamine D4.4 receptor expressed in CHO cells; assay type: cell-based
T1 sequence (P21917 whole entry): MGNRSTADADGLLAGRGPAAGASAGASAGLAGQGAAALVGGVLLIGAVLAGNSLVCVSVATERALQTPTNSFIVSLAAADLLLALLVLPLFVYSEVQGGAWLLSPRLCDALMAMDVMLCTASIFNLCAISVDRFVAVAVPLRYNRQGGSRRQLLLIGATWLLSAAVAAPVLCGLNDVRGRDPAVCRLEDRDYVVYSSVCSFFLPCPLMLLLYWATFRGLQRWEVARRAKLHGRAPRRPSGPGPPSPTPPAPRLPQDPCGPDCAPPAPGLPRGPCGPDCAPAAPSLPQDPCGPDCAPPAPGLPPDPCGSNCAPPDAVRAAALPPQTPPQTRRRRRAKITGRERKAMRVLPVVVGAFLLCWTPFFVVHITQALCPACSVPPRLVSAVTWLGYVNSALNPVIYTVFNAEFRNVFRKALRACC

[1] = biological target: 5-hydroxytryptamine receptor 2A (Sus scrofa, UniProt P50129); assay: Displacement of [3H]Ketanserin from 5-HT2 receptor in pig cortex membranes; assay type: cell membranes
D(1A) dopamine receptor = D(1A) dopamine receptor (Sus scrofa, UniProt P50130); assay: Displacement of [3H]SCH23390 from dopamine D1 receptor in pig striatal membranes; assay type: cell membranes, Striatum, Membrane
D(2) dopamine receptor [2] = biological target: T2, D(2) dopamine receptor (Homo sapiens, UniProt P14416); assay: Displacement of [3H]Spiperone from human dopamine D2 short receptor expressed in CHO cells; assay type: cell-based
D(3) dopamine receptor [3] = biological target: T3, D(3) dopamine receptor (Homo sapiens, UniProt P35462); assay: Displacement of [3H]Spiperone from human dopamine D3 receptor expressed in CHO cells; assay type: cell-based
[4] = Displacement of [3H]Prazosin from adrenergic alpha1 receptor in pig cerebral cortex homogenates; assay type: tissue-based, Sus scrofa
D(2) dopamine receptor [5] = biological target: T2, D(2) dopamine receptor; assay: Displacement of [3H]Spiperone from human dopamine D2 long receptor expressed in CHO cells; assay type: cell-based
D(3) dopamine receptor [6] = biological target: T3, D(3) dopamine receptor; assay: Agonist activity at human dopamine D3 receptor expressed in dhfr deficient CHO cells assessed as [3H]thymidine incorporation; assay type: functional, cell-based
Homo sapiens [7] = organism: Homo sapiens; assay: Selectivity ratio of Ki for wild type human dopamine D3 receptor to Ki for human dopamine D3 receptor F6.52W mutant
Homo sapiens [8] = organism: Homo sapiens; assay: Selectivity ratio of Ki for wild type human dopamine D3 receptor to Ki for human dopamine D3 receptor V2.61F mutant

D(1A) dopamine receptor, sequence (P50130 whole entry): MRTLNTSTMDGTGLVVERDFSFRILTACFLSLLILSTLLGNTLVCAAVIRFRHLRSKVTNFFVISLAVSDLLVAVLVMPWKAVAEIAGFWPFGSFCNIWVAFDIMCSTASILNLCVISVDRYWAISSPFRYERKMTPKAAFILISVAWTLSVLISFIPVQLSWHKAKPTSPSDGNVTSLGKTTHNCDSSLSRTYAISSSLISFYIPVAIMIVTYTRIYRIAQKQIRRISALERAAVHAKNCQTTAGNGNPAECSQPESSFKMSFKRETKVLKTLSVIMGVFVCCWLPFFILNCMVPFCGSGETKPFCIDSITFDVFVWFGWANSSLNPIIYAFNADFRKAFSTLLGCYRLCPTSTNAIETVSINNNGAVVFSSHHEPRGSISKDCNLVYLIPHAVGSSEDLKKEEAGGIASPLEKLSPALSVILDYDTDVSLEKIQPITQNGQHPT
T2 sequence (P14416 whole entry): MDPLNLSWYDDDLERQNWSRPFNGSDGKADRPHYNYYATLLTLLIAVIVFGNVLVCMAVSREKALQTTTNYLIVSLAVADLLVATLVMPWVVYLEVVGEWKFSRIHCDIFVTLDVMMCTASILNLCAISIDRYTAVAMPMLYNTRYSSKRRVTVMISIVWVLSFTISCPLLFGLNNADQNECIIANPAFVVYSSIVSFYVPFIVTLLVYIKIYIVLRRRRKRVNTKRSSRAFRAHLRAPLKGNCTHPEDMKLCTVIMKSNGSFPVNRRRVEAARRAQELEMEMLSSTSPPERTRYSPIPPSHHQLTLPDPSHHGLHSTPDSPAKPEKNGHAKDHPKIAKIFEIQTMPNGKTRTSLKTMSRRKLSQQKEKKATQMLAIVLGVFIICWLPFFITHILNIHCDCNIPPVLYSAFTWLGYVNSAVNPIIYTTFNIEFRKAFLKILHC
T3 sequence (P35462 whole entry): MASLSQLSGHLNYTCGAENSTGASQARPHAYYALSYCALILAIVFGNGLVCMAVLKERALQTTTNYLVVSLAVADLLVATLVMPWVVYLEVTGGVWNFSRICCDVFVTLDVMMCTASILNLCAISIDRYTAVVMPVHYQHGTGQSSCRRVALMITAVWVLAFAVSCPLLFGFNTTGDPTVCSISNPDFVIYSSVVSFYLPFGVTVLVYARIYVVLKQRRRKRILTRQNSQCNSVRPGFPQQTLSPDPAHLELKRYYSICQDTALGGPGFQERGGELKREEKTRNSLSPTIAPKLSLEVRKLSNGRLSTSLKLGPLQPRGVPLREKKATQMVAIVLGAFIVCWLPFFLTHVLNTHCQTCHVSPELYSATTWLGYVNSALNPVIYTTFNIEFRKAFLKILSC
5-hydroxytryptamine receptor 2A, sequence (P50129 whole entry): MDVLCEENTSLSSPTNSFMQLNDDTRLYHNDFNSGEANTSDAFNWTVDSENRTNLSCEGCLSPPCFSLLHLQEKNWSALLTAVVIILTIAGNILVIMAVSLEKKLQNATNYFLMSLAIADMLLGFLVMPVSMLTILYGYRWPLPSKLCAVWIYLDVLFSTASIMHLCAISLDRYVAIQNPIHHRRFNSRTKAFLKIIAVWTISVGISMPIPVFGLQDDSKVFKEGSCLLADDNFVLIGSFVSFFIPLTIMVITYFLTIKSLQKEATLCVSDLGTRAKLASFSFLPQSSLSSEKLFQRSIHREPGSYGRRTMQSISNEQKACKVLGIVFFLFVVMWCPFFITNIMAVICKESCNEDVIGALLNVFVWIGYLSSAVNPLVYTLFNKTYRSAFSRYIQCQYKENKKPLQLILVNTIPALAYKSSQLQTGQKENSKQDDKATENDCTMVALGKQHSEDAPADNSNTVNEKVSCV

| Structure (SMILES) | Ki (D(4) dopamine receptor) [nM] | Ki [1] [nM] | Ki (D(1A) dopamine receptor) [nM] | Ki (D(2) dopamine receptor [2]) [nM] | Ki (D(3) dopamine receptor [3]) [nM] | Ki [4] [nM] | Ki (D(2) dopamine receptor [5]) [nM] | Activity (D(3) dopamine receptor [6]) | Ratio Ki (Homo sapiens [7]) | Ratio Ki (Homo sapiens [8]) |
| --- | --- | --- | --- | --- | --- | --- | --- | --- | --- | --- |
| COc1ccccc1N1CCN(CCCCNC(=O)c2cc3ccc2CCc2ccc(cc2)CC3)CC1 | 11 | 2200 | 680 | 18 | 0.49 | 4.2 | 24 |  |  |  |
| O=C(CCCN1CCN(c2cc3ccc2CCc2ccc(cc2)CC3)CC1)c1ccc(F)cc1 | 120 | 450 | 590 | 22 | 9.9 | 71 | 19 |  |  |  |
| Cc1ccc(C)c(C(=O)CCCN2CCC(O)(c3cc(C)ccc3C)CC2)c1 | 30 | 1700 | 590 |  | 280 | 11 |  |  |  |  |
| O=C(CCCN1CCC(O)(c2ccc(Cl)cc2)CC1)c1cc2ccc1CCc1ccc(cc1)CC2 | 39 | 2400 | 9800 |  | 17 |  |  |  |  |  |
| Cc1ccc(C)c(C2(O)CCN(CCCC(=O)c3ccc(F)cc3)CC2)c1 | 20 | 110 | 19 | 6.5 | 27 | 1.3 | 3.4 |  |  |  |
| O=C(CCCN1CCN(c2ccc(Cl)cc2)CC1)c1cc2ccc1CCc1ccc(cc1)CC2 | 120 | 1700 | 5400 | 440 | 410 | 180 | 620 |  |  |  |
| Cc1ccc(C)c(N2CCN(CCCC(=O)c3ccc(F)cc3)CC2)c1 | 17 | 850 | 210 | 16 | 76 | 3.2 | 13 |  |  |  |
| Cc1ccc(C)c(C(=O)CCCN2CCC(O)(c3ccc(Cl)cc3)CC2)c1 | 61 | 690 | 3800 | 43 | 73 | 35 | 15 |  |  |  |
| COc1ccccc1N1CCN(CCCCNC(=O)c2cc3ccccc3s2)CC1 |  | 350 |  |  |  | 14 |  |  |  |  |
| O=C(NCCCCN1CCN(c2cc3ccc2CCc2ccc(cc2)CC3)CC1)c1cc2ccc1CCc1ccc(cc1)CC2 | 170 | 8200 | 7800 | 48 | 4 | 840 | 32 |  |  |  |
| COc1ccccc1N1CCN(CCCCNC(=O)c2cc(C)ccc2C)CC1 | 23 | 1500 | 2100 | 17 | 4.7 | 14 | 22 |  |  |  |
| O=C(NCCCCN1CCN(c2cc3ccc2CCc2ccc(cc2)CC3)CC1)c1cc2ccccc2s1 | 880 | 1000 | 4000 | 150 | 1.6 | 490 | 83 | inactive | 2.4 | 24 |
| O=C(CCCN1CCC(O)(c2cc3ccc2CCc2ccc(cc2)CC3)CC1)c1ccc(F)cc1 | 0.72 | 19 | 100 | 3.6 | 53 | 2.9 | 4.8 |  |  |  |
| O=C(CCCN1CCN(c2ccc(Cl)cc2)CC1)c1ccc(F)cc1 | 7.6 | 440 | 340 | 61 |  | 13 | 63 |  |  |  |
| O=C(CCCN1CCC(O)(c2cc3ccc2CCc2ccc(cc2)CC3)CC1)c1cc2ccc1CCc1ccc(cc1)CC2 | 30 | 1200 | 4900 |  | 38 | 2800 |  |  |  |  |
| Cc1ccc(C)c(N2CCN(CCCCNC(=O)c3cc4ccccc4s3)CC2)c1 | 300 | 1500 | 2400 | 65 | 2.5 | 20 | 84 |  | 38 | 40 |
| Cc1ccc(C)c(C(=O)NCCCCN2CCN(c3cc(C)ccc3C)CC2)c1 | 220 | 3600 | 3200 | 86 | 28 | 29 | 99 |  |  |  |
| O=C(CCCN1CCC(O)(c2ccc(Cl)cc2)CC1)c1ccc(F)cc1 [HALOPERIDOL] |  |  |  |  |  | 6.8 |  |  |  |  |

From ChEMBL document CHEMBL1255217, “Bioisosteric replacement leading to biologically active [2.2]paracyclophanes with altered binding profiles for aminergic G-protein-coupled receptors” (J Med Chem, 2010)
